Assay results reported in US6653294B2, “Use of chitinous materials for inhibiting cellular nitric oxide production” (Food Industry Research & Development Institute, priority 2000, dated 2003).

How the values were obtained:
[1] = tested on: activated RAW 264.7 cells; assay: Measurement of NO production via nitrite detection (Griess) in IFN-γ and LPS activated RAW 264.7 cells; type: cell-based, mouse; details: for Nitrite Production / Nitrite Production as Percentage of Control: IFN-γ + LPS; for Effect on NO production, in words (Table 2): conditions of Table 2 (2 and 10 μg/ml)
Procedure: (§1) NIH/3T3 (mouse embryo fibroblast, CCRC 60008) and RAW 264.7 (mouse monocyte/macrophage, CCRC 60001) cell lines were obtained from Culture Collection and Research Center (CCRC), Taiwan. Both cell lines were cultured in Dulbecco's modified essential medium (DMEM, GIBCO BRL, Rockville, Md.) containing 1.5 g/L NaHCO3 supplemented with 10% fetal bovine serum (Hyclone, Logan, Utah) and incubated in 5% CO2 at 37° C. Cell cultures were examined for mycoplasma contamination with the fluorescent stain Hoechst 33258 (Hay et al., ATCC Quality Control Methods for Cell Lines, American Type Culture Collection, Manassas, Va., 1992, pp 23-33). All cultures described in the present example were mycoplasma-free.
Two mixtures were prepared. A mixture of collagen type I (rat tail, Sigma, St. Louis, Mo.) was dissolved in 0.1 N acetic acid to produce a 1 mg/ml collagen solution. Chitin was added to 0.1 N acetic acid until a 1 mg/ml mixture was achieved, and the mixture was sonicated for 3 minutes using a Labsonic U sonicator, (Braun Biotech International, Germany). After being autoclaved at 121° C. for 15 minutes, the chitin mixture became a slurry of fine wires. Microtiter tissue culture plates (96-well) were rinsed with Dulbecco's phosphate-buffer saline without Ca^+2 and Mg^+2 (D-PBS, GIBCO BRL). Five microliters of collagen solution or different amounts of the chitin mixture were then added to each well. The plates were then air-dried in a laminar flow hood and stored at 4° C. for up to a week.
Nitric oxide (NO) production was indirectly quantified by measuring the accumulation of nitrite (NO2^−) in the culture media using Griess reagents and sodium nitrite as a standard (Green et al., Anal. Biochem. 126:131-138, 1982; and Ignarro et al., Proc. Natl. Acad. Sci. USA 90:8103-8107, 1993). For nitrite assays, RAW 264.7 cells were subcultured in coated 96-well tissue culture plates at 1×10^5 cells/well and incubated for 24 hours. The culture media were changed to phenol red-free, serum-free DMEM containing 100 U/ml interferon-γ(IFN-γ, recombinant murine; GIBCO BRL) and 100 ng/ml lipopolysaccharide (LPS, Escherichia coli serotype 0128:B12; Sigma). The samples were then tested as described in Rollo et al., J. Leukoc. Biol. 60:397-404, 1996.
To measure the effect of chitin on NO production, cells were subcultured directly in the chitin-coated 96-well tissue culture plates. After overnight incubation, cells became adhered to the bottom of chitin-coated wells. The culture media were removed and replaced with media supplemented with IFN-γ and LPS as described above. After 48 hours incubation, […] of culture supernatants were mixed sequentially with equal volumes of 60 mM sulfanilamide (Sigma) in 3 N HCl and 4 mM N-1-naphthylethylenediamine (Sigma) and then shaken for 5 minutes at room temperature as described in Rollo et al., supra. Nitrite concentration was measured by reading the sample's absorbance at 540 nm using a microplate reader (MRX, Dynex Technologies, Inc., VA).

RAW 264.7 cells = assay: Cytotoxicity test (MTT cell growth), RAW 264.7; type: cell-based, mouse
Procedure: as §1
Two mixtures were prepared. […]
For chitin cytotoxicity experiment, cells were subcultured in 96-well tissue culture plates precoated with different amount of chitin or with collagen at a density of 2000 cells/well and incubated for 48 hours. […] Cytotoxicity was measured using the dye 3-(4,5-dimethylthiazol-2-yl)-2,5-diphenyl tetrazolium bromide (MTT; Merck Co., Germany) and following the methods described in Mosmann, J. Immunol. […]
The cytotoxicity associated with chitin and chitosan was evaluated for both mouse embryonic fibroblast NIH/3T3 cells and mouse monocyte-macrophage RAW 264.7 cells. […]

[2] = 5 μl per well (1 mg/ml) coated, 48 hours

Compound | Nitrite Production ([1]; 2 μg/ml in culture medium) | Nitrite Production as Percentage of Control ([1]; 2 μg/ml in culture medium) | Nitrite Production ([1]; 10 μg/ml in culture medium) | Nitrite Production as Percentage of Control ([1]; 10 μg/ml in culture medium) | Effect on NO production, in words (Table 2) [1] | Cytotoxicity (MTT) (RAW 264.7 cells) | Nitrite Production [1, 2] | Nitrite Production as Percentage of Control [1, 2] | Effect on NO production, in words (Table 1) ([1]; conditions of Table 1)
CC(=O)N[C@H]1[C@H](O[C@H]2[C@H](O)[C@@H](NC(C)=O)C(O)O[C@@H]2CO)O[C@H](CO)[C@@H](O[C@@H]2O[C@H](CO)[C@@H](O)[C@H](O)[C@H]2NC(C)=O)[C@@H]1O (stereo partly shown) [chitotriose] | 61.5 ± 0.9 µM | 93.8% | 61.1 ± 0.2 µM | 93.1% |  |  |  |  | 
CC(=O)N[C@H]1[C@H](O[C@H]2[C@H](O)[C@@H](NC(C)=O)C(O)O[C@@H]2CO)O[C@H](CO)[C@@H](O)[C@@H]1O (stereo partly drawn) [chitobiose, 2-acetamido-2-deoxy-4-O-(2-acetamido-2-deoxy-b-D-glucopyranosyl)-D-glucopyranose] | 64.9 ± 0.8 µM | 98.9% | 64.1 ± 0.9 µM | 97.7% |  |  |  |  | 
CC(=O)N[C@H]1[C@H](O[C@H]2[C@H](O)[C@@H](NC(C)=O)[C@H](O[C@H]3[C@H](O)[C@@H](NC(C)=O)C(O)O[C@@H]3CO)O[C@@H]2CO)O[C@H](CO)[C@@H](O[C@@H]2O[C@H](CO)[C@@H](O[C@@H]3O[C@H](CO)[C@@H](O[C@@H]4O[C@H](CO)[C@@H](O)[C@H](O)[C@H]4NC(C)=O)[C@H](O)[C@H]3NC(C)=O)[C@H](O)[C@H]2NC(C)=O)[C@@H]1O (stereo partly shown) [chitohexose] | 41.3 ± 0.8 µM | 63% | 35.8 ± 2.9 µM | 54.5% | did substantially decrease NO production |  |  |  | 
CC(=O)N[C@@H]1[C@@H](O)[C@H](O[C@@H]2O[C@H](CO)[C@@H](O[C@@H]3O[C@H](CO)[C@@H](O[C@@H]4O[C@H](CO)[C@@H](O[C@@H]5O[C@H](CO)[C@@H](O)[C@H](O)[C@H]5NC(C)=O)[C@H](O)[C@H]4NC(C)=O)[C@H](O)[C@H]3NC(C)=O)[C@H](O)[C@H]2NC(C)=O)[C@@H](CO)O[C@H]1O [chitopentose] | 47.0 ± 0.5 µM | 70.6% | 42.7 ± 1.2 µM | 65.1% | did substantially decrease NO production |  |  |  | 
N[C@H]1C(O)O[C@H](CO)[C@@H](O)[C@@H]1O (stereo partly shown) [glucosamine, reference compound] |  |  | 64.3 ± 0.8 µM | 98.0% |  | not cytotoxic |  |  | 
Collagen: collagen type I (rat tail, Sigma), coating comparison [reference compound] |  |  |  |  |  |  | 73.4 ± 0.9 µM | 99% | did not significantly affect NO production
CC(=O)N[C@H]1C(O)O[C@H](CO)[C@@H](O)[C@@H]1O (stereo partly shown) [NAGA, N-acetylglucosamine, reference compound] |  |  | 66.7 ± 0.9 µM | 102% |  | not cytotoxic |  |  | 
chitotetraose | 63.4 ± 0.5 µM | 96.6% | 61.3 ± 0.6 µM | 93.4% |  |  |  |  | 
